Measurements reported in US9499509B2, “Dihydrochalcone derivatives and their use as antibiotic agents” (UNIVERSITÉ DU QUÉBEC À CHICOUTIMI, priority 2012, dated 2016).
Counter-ions that a name gives are not always drawn. Like-named read-outs stand apart in the source and are kept apart here.

Key:
[1] = test system: methicillin-resistant Staphylococcus aureus (MRSA) strains; experiment: Antibiotic assay (resazurin, Example 1), MRSA strains; assay type: cell-based; conditions: Staphylococcus aureus, MRSA
Excerpt: (§1) Bacteria Strain. […] The MRSA were obtained as further described below.
(§2) Antibiotic agents. Cyprofloxacin and erythromycin were provided by Sigma-Aldrich. Gentamicin sulfate and vancomycin hydrochloride were provided by Calbiochem.
Isolation and identification of methicillin-resistant Staphylococcus aureus (MRSA) strains. From March 2007 to March 2008, 35 screening swabs from nares (n=31), throat (n=3), Groin pus (n=1) were obtained from patients hospitalized at Chicoutimi hospital. Identification of S. aureus was performed using the Slidex Staph-Kit (bioMerieux Vitek, Inc., Hazelwood, Mo.) according to the manufacturer's instructions. Quality control was performed with MRSA strain ATCC 43300 and S. aureus strain ATCC 25923. In addition, S. aureus profile was determined with API Staph test strip with bacterial suspension of saline McFarland of 0.5 (bioMerieux, Durham, N.C.) according to the manufacturer's protocol. API Staph strips were held for 24 h before the results were read. A latex agglutination (SLIDEX) test detecting methicilin resistance in Staphylococci based on the production of low-affinity PBP2a, which is encoded by the mecA gene was performed on all strains. An antibiogram was also performed to confirm the identification of MRSA strains using disk diffusion test.
Antibiotic susceptibility testing using disk diffusion method. The antimicrobial activity of different classes of antibiotics of the potential MRSA was determined by diffusion method (Kirby-Bauer) as described by NCCLS. The antibiotics tested included: penicillin (10 units), amoxicillin/clavulanic acid (20/10 μg), ciprofloxacin (5 μg), moxifloxacin (5 μg), levofloxacin (5 μg), clindamycin (15 μg), erythromycin (15 μg), cefoxitin (30 μg), linezolid (30 μg), trimethoprim/sulfomethoxazole (1.25/23.75 μg), rifampicin (5 μg), gentamicin (10 μg) and vancomycin (30 μg). The agar medium had pH 7.2 to 7.4 before inoculing potentiel MRSA. The antibiotics were maintained at 8° C. or lower −14° C. according to manufacturer's recommendations. The pure culture was inoculated on a non-selective plate for 18-24 h. Each colony was collected with a wire loop and transfered the growth to a tube containing 4 to 5 mL of a tryptic-soy broth. The inoculum density was standarized with BaSO4 using 0.5 McFarland standard. All strains were incubated at 37° C. until it achieves or exceeds the turbidity of 0.5 McFarland standard. Inoculation of the dried surface (Muller-Hinton agar plate) by streaking the swab over the entire sterile agar surface. This procedure was repeated two more times. After 15 min, the appropriate disk were applied on the surface with a sterile forceps. The inverted plates was placed in a incubator at 37° C./air/16 to 18 h or 24 h for vancomycin. The inhibition zones were measured with a millimetric ruler. Interpretation of zone sizes by references of the manufacturer. Quality control organisms used were ATCC strains number 25923.
(§3) MRSA. Ten (10) strains of MRSA obtained as described above were tested along with an S. aureus wild type (WT) strain (ATCC25923).

S. epidermidis = experiment: Antibiotic assay (resazurin, Example 1), S. epidermidis strains; conditions: Staphylococcus epidermidis
S. aureus = experiment: Antibiotic assay (resazurin, Example 1), S. aureus strains of Table 3; assay type: cell-based, Staphylococcus aureus; conditions: Staphylococcus aureus
Excerpt: as §1, §2

Streptococcus agalactiae = experiment: Antibiotic assay (resazurin, Example 1), Streptococcus agalactiae; assay type: cell-based; conditions: Streptococcus agalactiae
Description: as §1, §2
(§4) Five additional strains were tested: Streptococcus pneumoniae, Streptococcus agalactiae, Streptococcus pyogenes, Enterococcus faecalis and Corynebacterium jeikeium.

[2] = test system: S. aureus wild type strain (ATCC 25923); experiment: Antibiotic assay (resazurin, Example 1), S. aureus wild type; assay type: cell-based, Staphylococcus aureus; conditions: Staphylococcus aureus
Description: as §1, §2, §3

Streptococcus pyogenes = experiment: Antibiotic assay (resazurin, Example 1), Streptococcus pyogenes; assay type: cell-based; conditions: Streptococcus pyogenes
Description: as §1, §2, §4

Enterococcus faecalis = experiment: Antibiotic assay (resazurin, Example 1), Enterococcus faecalis; assay type: cell-based; conditions: Enterococcus faecalis
Description: as §1, §2, §4

CN[C@H](CC(C)C)C(=O)N[C@H]1C(=O)N[C@@H](CC(N)=O)C(=O)N[C@H]2C(=O)N[C@H]3C(=O)N[C@H](C(=O)N[C@H](C(=O)O)c4cc(O)cc(O)c4-c4cc3ccc4O)[C@H](O)c3ccc(c(Cl)c3)Oc3cc2cc(c3O[C@@H]2O[C@H](CO)[C@@H](O)[C@H](O)[C@H]2O[C@H]2C[C@](C)(N)[C@H](O)[C@H](C)O2)Oc2ccc(cc2Cl)[C@H]1O [Vancomycin, vancomycin hydrochloride, reference compound]
IC50 ([1]; MRSA1): 80 ± 10 nM
IC50 ([1]; MRSA2): 80 ± 10 nM
IC50 ([1]; MRSA3): 64 ± 7 nM
IC50 ([1]; MRSA4): 69 ± 9 nM
IC50 ([1]; MRSA5): 62 ± 6 nM
IC50 ([1]; MRSA6): 80 ± 10 nM
IC50 ([1]; MRSA7): 80 ± 10 nM
IC50 ([1]; MRSA8): 80 ± 10 nM
IC50 ([1]; MRSA9): 80 ± 10 nM
IC50 ([1]; MRSA10): 59 ± 6 nM
MIC ([1]; read-out: Minimum Inhibitory Concentration (MIC), MRSA1): 0.12 µM
MIC ([1]; read-out: Minimum Inhibitory Concentration (MIC), MRSA2): 0.13 µM
MIC ([1]; read-out: Minimum Inhibitory Concentration (MIC), MRSA3): 0.1 µM
MIC ([1]; read-out: Minimum Inhibitory Concentration (MIC), MRSA4): 0.1 µM
MIC ([1]; read-out: Minimum Inhibitory Concentration (MIC), MRSA5): 0.09 µM
MIC ([1]; read-out: Minimum Inhibitory Concentration (MIC), MRSA6): 0.2 µM
MIC ([1]; read-out: Minimum Inhibitory Concentration (MIC), MRSA7): 0.11 µM
MIC ([1]; read-out: Minimum Inhibitory Concentration (MIC), MRSA8): 0.11 µM
MIC ([1]; read-out: Minimum Inhibitory Concentration (MIC), MRSA9): 0.11 µM
MIC ([1]; read-out: Minimum Inhibitory Concentration (MIC), MRSA10): 0.09 µM
IC50 (S. epidermidis; S. epidermidis 14069): 800 ± 100 nM
IC50 (S. epidermidis; S. epidermidis 14085): 800 ± 100 nM
IC50 (S. epidermidis; S. epidermidis 14093): 1300 ± 200 nM
IC50 (S. epidermidis; S. epidermidis 14134): 1700 ± 200 nM
IC50 (S. epidermidis; S. epidermidis 14143): 2700 ± 100 nM
MIC (S. epidermidis; read-out: Minimum Inhibitory Concentration (MIC), S. epidermidis 14069): 6.58 µM
MIC (S. epidermidis; read-out: Minimum Inhibitory Concentration (MIC), S. epidermidis 14085): 4 µM
MIC (S. epidermidis; read-out: Minimum Inhibitory Concentration (MIC), S. epidermidis 14093): 8.38 µM
MIC (S. epidermidis; read-out: Minimum Inhibitory Concentration (MIC), S. epidermidis 14134): 11.4 µM
MIC (S. epidermidis; read-out: Minimum Inhibitory Concentration (MIC), S. epidermidis 14143): > 12.5 µM
IC50 (S. aureus; S. aureus 14094): 280 ± 40 nM
IC50 (S. aureus; S. aureus 14108): 270 ± 40 nM
IC50 (S. aureus; S. aureus 14118): 240 ± 30 nM
IC50 (S. aureus; S. aureus 14154): 280 ± 50 nM
MIC (S. aureus; read-out: Minimum Inhibitory Concentration (MIC), S. aureus 14094): 0.41 µM
MIC (S. aureus; read-out: Minimum Inhibitory Concentration (MIC), S. aureus 14108): 0.44 µM
MIC (S. aureus; read-out: Minimum Inhibitory Concentration (MIC), S. aureus 14118): 0.38 µM
MIC (S. aureus; read-out: Minimum Inhibitory Concentration (MIC), S. aureus 14154): 0.45 µM
IC50 (Streptococcus agalactiae; Strep. agalactiae 14150): 250 ± 60 nM
IC50 (Streptococcus agalactiae; Strep. agalactiae 14151): 330 ± 60 nM
IC50 (Streptococcus agalactiae; Strep. agalactiae 14153): 240 ± 40 nM
MIC (Streptococcus agalactiae; read-out: Minimum Inhibitory Concentration (MIC), Strep. agalactiae 14150): 0.35 µM
MIC (Streptococcus agalactiae; read-out: Minimum Inhibitory Concentration (MIC), Strep. agalactiae 14151): 4.03 µM
MIC (Streptococcus agalactiae; read-out: Minimum Inhibitory Concentration (MIC), Strep. agalactiae 14153): 0.36 µM
IC50 ([2]; ATCC25923): 400 ± 200 nM
MIC ([2]; ATCC25923, read-out: Minimum Inhibitory Concentration (MIC)): 1.44 µM
IC50 (Streptococcus pyogenes; Strep. pyogenes 14149): 117 ± 9 nM
IC50 (Streptococcus pyogenes; Strep. pyogenes 14152): 80 ± 20 nM
MIC (Streptococcus pyogenes; read-out: Minimum Inhibitory Concentration (MIC), Strep. pyogenes 14149): 0.17 µM
MIC (Streptococcus pyogenes; read-out: Minimum Inhibitory Concentration (MIC), Strep. pyogenes 14152): 3.25 µM
IC50 (Enterococcus faecalis; Ent. Faecalis 14078): 700 ± 100 nM
IC50 (Enterococcus faecalis; Ent. Faecalis 14115): > 10000 nM
MIC (Enterococcus faecalis; read-out: Minimum Inhibitory Concentration (MIC), Ent. Faecalis 14078): 5.59 µM
MIC (Enterococcus faecalis; read-out: Minimum Inhibitory Concentration (MIC), Ent. Faecalis 14115): > 10 µM
